Data set [1] deals with T1, rabbit reticulocyte 15-LO (Oryctolagus cuniculus, UniProt P12530).
T1 construct: Fifteen-lipoxygenase was obtained from phenylhydrazine-treated rabbits and purified per the method of Rapoport; from tissue; host or cells: reticulocytes of phenylhydrazine-treated rabbits
T1 sequence (P12530 1-663): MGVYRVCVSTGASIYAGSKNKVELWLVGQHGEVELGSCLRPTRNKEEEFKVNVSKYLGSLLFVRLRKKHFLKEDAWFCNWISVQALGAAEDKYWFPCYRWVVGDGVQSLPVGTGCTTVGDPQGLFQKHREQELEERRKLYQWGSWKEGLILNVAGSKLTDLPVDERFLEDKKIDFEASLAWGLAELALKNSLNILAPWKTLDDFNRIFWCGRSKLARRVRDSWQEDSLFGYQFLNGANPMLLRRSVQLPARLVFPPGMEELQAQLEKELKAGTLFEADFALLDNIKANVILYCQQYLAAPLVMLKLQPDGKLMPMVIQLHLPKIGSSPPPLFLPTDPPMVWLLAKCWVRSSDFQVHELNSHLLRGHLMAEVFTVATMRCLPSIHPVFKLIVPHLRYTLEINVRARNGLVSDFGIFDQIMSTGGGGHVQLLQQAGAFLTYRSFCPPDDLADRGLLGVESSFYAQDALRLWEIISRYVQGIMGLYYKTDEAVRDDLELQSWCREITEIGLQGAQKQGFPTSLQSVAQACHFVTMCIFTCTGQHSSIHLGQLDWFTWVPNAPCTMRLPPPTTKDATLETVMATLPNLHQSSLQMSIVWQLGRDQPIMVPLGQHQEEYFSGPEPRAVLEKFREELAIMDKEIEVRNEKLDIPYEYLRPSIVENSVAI
The experiment in a line: Rabbit Reticulocyte 15-LO Assay (h15LO). The data set is classed as biochemical. As to conditions: Table 2; for IC50: 2U rabbit reticulocyte 15-LO, 174 μM linoleic acid, 15 minutes at 4° C.; for h15LO, value given as bare %: concentration not given. The method, boiled down:
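Linoleic acid oxidation to 13-HPODE measured at 4° C. over 15 minutes, using 174 μM substrate and 2U enzyme purified from phenylhydrazine-treated rabbits in PBS/0.2% Na cholate. Product peak areas calibrated with authentic 13-HODE; inhibition expressed versus maximal reaction.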

`COc1ccc(C(=O)Nc2ccccc2)cc1NS(=O)(=O)c1cccc2ccccc12` [Example 133, 3-(Naphthalene-1-sulfonylamino)-4-methoxy-N-phenyl-benzamide]: the melting point (usually the temperature of the solid-liquid transition) was in the range of 212 to 213 °C. Further, in data set [1], it took 58 nM to reach half-maximal inhibition (IC50).

The compound `CCS(=O)(=O)Nc1cc(C(=O)Nc2ccccc2)ccc1OC` [Example 134, 3-Ethanesulfonylamino-4-methoxy-N-phenyl-benzamide] yielded a melting point of 175 to 177 °C. Further, in data set [1], the IC50 (in general, the concentration that inhibits the measured activity by half) worked out at 137 nM.

As to `COc1ccc(C(=O)Nc2ccccc2)cc1NS(=O)(=O)Cc1ccccc1` [Example 135, 3-Phenylmethanesulfonylamino-4-methoxy-N-phenyl-benzamide], the melting point worked out at 216 °C. The IC50 in data set [1] was determined as 63 nM.

`COc1ccc(C(=O)Nc2ccccc2)cc1NS(=O)(=O)c1ccc(Cl)c(Cl)c1` [Example 136, 3-(3,4-Dichloro-benzenesulfonylamino)-4-methoxy-N-phenyl-benzamide] registered a melting point of 191 to 193 °C. Further, the half-maximal inhibitory concentration (IC50) in data set [1] was found to be 48 nM.

Regarding `COc1ccc(C(=O)Nc2ccccc2)cc1NS(=O)(=O)c1ccc(F)cc1F` [Example 137, 3-(2,4-Difluoro-benzenesulfonylamino)-4-methoxy-N-phenyl-benzamide], the melting point is 198 to 200 °C. In data set [1], this compound showed a half-maximal inhibitory concentration (IC50) of 151 nM.

On to `COc1ccc(C(=O)Nc2ccccc2)cc1NS(=O)(=O)c1cccc(C)c1` [Example 138, 3-(Toluene-3-sulfonylamino)-4-methoxy-N-phenyl-benzamide], for which the melting point lay in the range of 195 to 197 °C. Inhibition in data set [1] was half-maximal at 28 nM (IC50).

Turning to `COc1ccc(C(=O)Nc2ccccc2)cc1NS(=O)(=O)c1ccc(NC(C)=O)cc1` [Example 139, 3-(4-Acetylamino-benzenesulfonylamino)-4-methoxy-N-phenyl-benzamide], the melting point lay in the range of 250 to 251 °C. Moreover, in data set [1], 104 nM corresponded to half-maximal inhibition (IC50).

Turning to `COc1ccc(C(=O)Nc2ccccc2)cc1NS(=O)(=O)c1cn(C)cn1` [Example 141, 3-(1-Methyl-1H-imidazole-4-sulfonylamino)-4-methoxy-N-phenyl-benzamide], the melting point lay within 250 to 252 °C. The IC50 in data set [1] amounted to 582 nM.

For `COc1ccc(C(=O)Nc2ccccc2)cc1NS(=O)(=O)c1cccs1` [Example 142, 3-(Thiophene-2-sulfonylamino)-4-methoxy-N-phenyl-benzamide], the melting point was in the range of 180 to 183 °C. Also, the 50% inhibitory concentration (IC50) in data set [1] is 12 nM.

Consider `COc1ccc(C(=O)Nc2ccccc2)cc1NS(=O)(=O)c1cccc2c(N(C)C)cccc12` [Example 143, 3-(5-Dimethylaminonaphthalene-1-sulfonylamino)-4-methoxy-N-phenyl-benzamide], for which the melting point fell in the range of 231 to 232 °C. In addition, inhibition in data set [1] was half-maximal at 25 nM (IC50).

For `COc1ccc(C(=O)Nc2ccccc2)cc1OC(=O)Oc1ccccc1` [Example 144, 2-Methoxy-5-phenylcarbamoyl-carbonic acid-phenyl ester phenyl ester], the melting point was 152 to 153 °C. Half-maximal inhibition in data set [1] (IC50) required 1190 nM.

Consider `Nc1cc(C(=O)Nc2ccc(F)cc2)ccc1OC(F)(F)F` [Example 146, 3-Amino-4-trifluoromethoxy-N-(4-fluoro-phenyl)-benzamide], for which the melting point lay in the range of 139 to 140 °C. For the same compound, the “h15LO, value given as bare %” value in data set [1] was determined as 35.29%.

With `COC(=O)c1cccc(NC(=O)c2ccc(OC)c(N)c2)c1` [Example 149, 3-(3-Amino-4-methoxy-benzoylamino)-benzoic Acid Methyl Ester], the melting point was in the range of 160 to 162 °C. The IC50 in data set [1] is 330 nM.

`O=C(Nc1ccc(F)cc1)c1ccc(OC(F)(F)F)c(NC(=S)Nc2cc(Cl)cc(Cl)c2)c1` [Example 163, 3-[3-(3,5-Dichloro-phenyl)-thioureido]-4-trifluoromethoxy-N-(4-fluoro-phenyl)-benzamide]: the melting point lay within 165 to 166 °C. Inhibition in data set [1] was half-maximal at 629 nM (IC50).

`O=C(Nc1ccc(F)cc1)c1ccc(OC(F)(F)F)c(NC(=S)Nc2cccc(C(F)(F)F)c2)c1` [Example 164]: the melting point lay in the range of 153 to 154 °C. In data set [1], inhibition was half-maximal at 1590 nM (IC50).

The compound `CCCCCCCCCCCCS(=O)(=O)Nc1cc(C(=O)Nc2ccc(Cl)c(Cl)c2)ccc1OC` [Example 194, 3-(Dodecane-1-sulfonylamino)-4-methoxy-N-(3,4-dichloro-phenyl)-benzamide] displayed a melting point of 151 to 152 °C. The “h15LO, value given as bare %” value in data set [1] is given as 93.61%.

The compound `COc1ccc(C(=S)Nc2ccccc2)cc1NS(=O)(=O)c1cc(Cl)cc(Cl)c1` [Example 208, 3-(3,5-Dichloro-benzenesulfonylamino)-4-methoxy-N-phenyl-thiobenzamide] returned a melting point of 206 to 208 °C. For the same compound, the “h15LO, value given as bare %” value in data set [1] was found to be 98.52%.

Turning to `COc1ccc(CNc2ccccc2)cc1NS(=O)(=O)c1cc(Cl)cc(Cl)c1` [Example 209, 3,5-Dichloro-N-(2-methoxy-5-phenylaminomethyl-phenyl)-benzenesulfonamide], the melting point was 105 to 108 °C. In addition, in data set [1], the “h15LO, value given as bare %” value was found to be 80.94%.

`COc1ccc(C(=O)Nc2ccccc2)cc1NC(=O)CC(=O)OCc1ccccc1` [Example 252, (2-Methoxy-5-phenylcarbamoyl-phenylcarbamoyl)-acetic acid phenylmethyl Ester] came in with a melting point of 168 to 171 °C. In addition, in data set [1], the “h15LO, value given as bare %” value was found to be 43%.

As to `COc1ccc(C(=O)Nc2ccccc2)cc1NCCc1cccc(C(F)(F)F)c1` [Example 253, 4-Methoxy-N-phenyl-3-[2-(3-trifluoromethyl-phenyl)-ethylamino]-benzamide], the melting point was 142 to 144 °C. Also, the “h15LO, value given as bare %” value in data set [1] came out at 60.56%.

`COc1ccc(C(=O)Nc2ccccc2)cc1NC(=NC#N)Nc1cc(Cl)cc(Cl)c1` [Example 256, 3-[[(Cyanoimino)[(3,5-dichlorophenyl)amino]methyl]amino]-4-methoxy-N-phenyl-benzamide] gave a melting point of 225 to 227 °C. Moreover, the “h15LO, value given as bare %” value in data set [1] turned out to be 45%.

Take `COc1ccc(C(=O)Nc2ccccc2)cc1NC(=O)C(O)c1ccccc1` (centres unmarked) [Example 257, 3-(2-Hydroxy-2-phenyl-acetylamino)-4-methoxy-N-phenyl-benzamide]: the melting point is 173 to 175 °C. Also, in data set [1], the “h15LO, value given as bare %” value was 61%.

Values taken from US6528528B2 (Warner-Lambert Company, priority 1997, dated 2003).
